Experimental findings from patent US11246857B2, “Anti-fungal inhibitors” (THE JOHNS HOPKINS UNIVERSITY, priority 2017, dated 2022) are described below.

Values after ≈ are worked out from the molar mass of the structure shown. “Also recorded” adds a separate entry of the source. Like-named read-outs stand apart in the source and are kept apart here.

For series [1], the system named is C. neoformans. The series is described as follows: Growth inhibition assay (Bioscreen C, 2-fold dilution series, plating for fungicidal vs fungistatic) in C. neoformans. It is filed as cell-based, Cryptococcus neoformans H99. The settings on record: for antifungal activity (in words): dose-response; for fungicidal activity, lowest concentration: plated after 72 h, 24 h recovery at 30° on Sabouraud agar. How it is done:
Primary screen and dose-response of selected candidates. To identify antifungal candidates in the MMV Malaria Box, the inventors initially casted the widest possible net. Growth inhibition assays were done using the Bioscreen C™ with constant agitation, in rich media and physiological relevant temperature of 37° to test the 400 antimalarial compounds against C. neoformans. […] To examine whether or not each dose was fungicidal or just fungistatic, the inventors plated a sample of each dilution after 72 hours. They were allowed to grow at the optimal growth temperature of 30° for 24 hours on Sabouraud rich agar plates and colonies were examined for growth. […]
(§1) Strains. H99 (Serotype A) is a well-characterized wild type laboratory reference strain of Cryptococcus neoformans (22). H99 was selected because it is a virulent strain widely by the field. Cryptococcus gattii strain R265 is used as the primary reference strain to which the genome is based (ATCC MYA-4093). This strain was isolated from the Vancouver Island (British Columbia, Canada) outbreak of 2004 (23, 24). H99 and R265 were maintained in Sabouraud (Sab) dextrose broth at 30° C. with constant 200 RPM agitation. One day prior to each experimental drug treatment, Sab broth was inoculated from glycerol stock and grown overnight to log phase before washing with PBS and resuspending in fresh Sab broth prior to treatment.
(§2) Compound library. 400 compounds were made available by the Medicines for Malaria Venture (Geneva, Switzerland) in the form of the open-access MMV Malaria Box. Compounds were stored at −80° C. in 100% DMSO at a concentration of 10 mM. Before usage, compounds were thawed at room temperature and thoroughly mixed. Compounds were diluted in 2-fold series 10 mM down to […] with DMSO before subsequent growth inhibition assays. Growth inhibition assays. The effectiveness of these MMV Malaria Box compounds against C. neoformans was measured by turbidity over time. The Bioscreen C™ (Growth Curves USA, Piscataway, N.J.) allows us to analyze ˜60 compounds at a time in triplicate with constant temperature and agitation. Assays were measured at 420-580 nm, wideband range every 15′ for 72 h at 37° C. to simulate physiologically relevant temperatures. Wideband is generally used for turbidity measurements, as it is mostly insensitive to changes in color. […] We inoculated 5×10^3 H99 C. neoformans and SC5314 C. albicans in 200 μl of Sabouraud dextrose broth in each of the honeycomb (HC-2) plate's 100 wells. A two-fold dilution series of each compound from 50 μM down to 0.39 μM final concentration were tested for effects against C. neoformans. To qualitatively differentiate fungistatic and fungicidal activity, 5 μl of each well after 72 h were spotted on Sabouraud dextrose agar rich media plates and allowed to grow at the optimal temperature 30° C. to induce a full recovery of viable yeast. Spots were noted after 24 h to identify fungicidal versus fungistatic concentrations of each compound. […] Mammalian cell viability and toxicity assays.

Another series has as its system human fibroblast. The series is described as follows: Toxicity against human fibroblast. It counts as cell-based. The text has this:
XlogP values are derived from PubChem and describe the lipophilicity of the molecule. The topological polar surface area (tPSA) is a metric for predicting cell penetration, with values <140 to be favorable. […] Toxicity against human fibroblast was used to calculate the therapeutic index TI.

The next series concerns L. prolificans. The series is described as follows: Growth inhibition assay, 2-fold dilution series, in L. prolificans. It is filed as cell-based, Lomentospora prolificans. As to conditions: for MIC: Lomentospora prolificans, after 72 h.
The test system of series [2] is C. neoformans. The series is described as follows: Imaging flow cytometry (Amnis ImageStream) of DM262 treated C. neoformans. It counts as cell-based, Cryptococcus neoformans. (A flow cytometer gives signals particle by particle.)
The subject of series [3] is murine bone marrow derived macrophages (BMDM). The series is described as follows: Mammalian cell lysis, LDH release assay in BMDM. It is filed as cell-based. Background: Release of lactate dehydrogenase indicates damage to the cell membrane.
For series [4] the test system is unchanged. The series is described as follows: Mammalian cell viability, MTT assay in BMDM. It is filed as cell-based. A general note: Formazan colour is commonly taken as a measure of viable cells.
The subject of a further series is C. albicans. The series can be described thus: Growth inhibition assay, 2-fold dilution series, in C. albicans. It counts as cell-based, Candida albicans SC5314. The settings on record: for MIC: Candida albicans, after 72 h. How it is done:
as §2

Another series has as its system C. gattii. The series is described as follows: Growth inhibition assay, 2-fold dilution series, in C. gattii. It counts as cell-based, Cryptococcus gattii R265. As to conditions: for MIC: Cryptococcus gattii, after 72 h. On the procedure: as §1, §2
Where [5] appears, read: 72 h drug exposure in liquid culture, then recovery on agar plates overnight.
The mark [6] stands for this setting: Cryptococcus neoformans, C. neoformans, after 72 h, read-out: MIC.
The mark [7] stands for this setting: highest concentration studied 50 μM.

For `Cc1ccc(Nc2nc(-c3ccccn3)cs2)cc1` [Compound 64], the MIC (as a rule, the smallest concentration in the dilution series that meets the test's criterion for growth inhibition) against C. neoformans [1] (setting [5]) came out at 1.6 µg/mL. Besides, the “antifungal activity (in words)” value with C. neoformans [1] (C. neoformans) is reported as “low activity”.
In the series on C. neoformans [1] (setting [5]), `O=C(Nc1cccc(C(F)(F)F)c1)c1cc(Cl)ccc1O` [Compound 155] came in with an MIC of 0.5 µg/mL. In addition, in the series on C. neoformans [1] (C. neoformans), the “fold more effective than fluconazole (fungicidal activity)” value is 8 fold and the “fungicidal activity, lowest concentration” value came to 3.12 µM. The same compound registered a Toxicity human fibroblast in the series with human fibroblast of 0.024 µM.
`Cc1ccc2cc3c(N)c4c(C)ccc(C)c4nc3nc2c1` [Compound 253] had a minimal inhibitory concentration (MIC) against C. neoformans [1] (setting [5]) of 7.2 µg/mL. Besides, the “antifungal activity (in words)” value with C. neoformans [1] (C. neoformans) was “low activity”. In the series with human fibroblast, this compound registered a Toxicity human fibroblast of 11.4 µM.
`Cc1ccc2c(c1)c1cc(C)ccc1n2CC(O)CNC1CCCCC1` (centres unmarked) [Compound 380]: the MIC against C. neoformans [1] (setting [5]) worked out at 0.9 µg/mL. Also, in the series with C. neoformans [1] (C. neoformans), the “fold more effective than fluconazole (fungicidal activity)” value turned out to be 8 fold and the “fungicidal activity, lowest concentration” value was determined as 3.12 µM. In the series with human fibroblast, this compound displayed a Toxicity human fibroblast of 4.03 µM.
Consider `Nc1ccc(-c2nc3ccc(Cc4ccc5nc(C6CCC(N)CC6)[nH]c5c4)cc3[nH]2)cc1` (centres unmarked) [DM262], for which the MIC against L. prolificans was 6.3 µM (≈ 2.75 µg/mL); in the series on C. neoformans [1] (setting [5]) it was 0.3 µg/mL; in the series with C. neoformans [1] (setting [6]), 0.8 µM; with C. albicans, 0.8 µM (≈ 0.349 µg/mL); against C. gattii, 50 µM (≈ 21.8 µg/mL). Moreover, the “concentration at which cells were dramatically trending towards apoptosis (apoptotic index, IDEAS 6.2)” value with C. neoformans [2] (24 h treatment, morphology of the nucleus) turned out to be 6.25 µM. Besides, the “effect on average size of the cells” value in the series on C. neoformans [2] (brightfield, ImageStream) is reported as “No significant change; also recorded: no effect”. Further, in the series on C. neoformans [1] (C. neoformans), the “fold more effective than fluconazole (fungicidal activity)” value was determined as 16 fold. Besides, the “fold more effective than fluconazole (fungistatic activity)” value with C. neoformans [1] (C. neoformans) came to 32 fold. Moreover, the “fungistatic activity, lowest concentration” value in the series with C. neoformans [1] (C. neoformans, 72 h) worked out at 0.8 µM. The “fungicidal activity, lowest concentration” value in the series on C. neoformans [1] (C. neoformans) was 1.56 µM. Moreover, the LD50 in series [3] (BMDM cell lysis, LDH release) is 50 µM; in series [4] (BMDM viability), 50 µM. The “concentration with minimal variance from DMSO vehicle control” value is recorded as “up to 12.5 μM” in series [3] (BMDM, LDH) and “up to 12.5 μM” in series [4] (BMDM). In the series with human fibroblast, this compound gave a Toxicity human fibroblast of 11.4 µM. Besides, the “concentration giving significant delay in growth” value in the series on C. gattii is ≥ 12.5 µM. The “time until log phase is reached” value in the series on C. gattii (12.5 μM treatment, growth curves) was “approximately 48 h”.
For `OC(Cn1cncn1)(Cn1cncn1)c1ccc(F)cc1F` [Fluconazole], the minimal inhibitory concentration (MIC) in the series on L. prolificans was > 50 µM; against C. neoformans [1] (setting [5]), 7.6 µg/mL; with C. neoformans [1] (setting [6]), 25 µM; against C. albicans, > 50 µM; with C. gattii, 50 µM (≈ 15.3 µg/mL). The fungicidal concentration in the series with L. prolificans (setting [7]) and with C. albicans (setting [7]) was > 50 µM each time. The “response in growth inhibition assay (in words)” value in the series with L. prolificans (up to the highest concentration tested, 50 μM) is given as “complete resistance”. Further, in the series on C. albicans, the “effect on final OD420-580 (in words)” value is given as “only slight decrease”. The “concentration at which growth was unaffected” value with C. gattii is ≤ 6.3 µM.
